Results: patent publication US7009053B2, “Quinoline derivatives as caspase-3 inhibitor, preparation for producing the same and pharmaceutical composition comprising the same” (Yungjin Pharmaceuticals Co., Ltd., priority 2002, dated 2006)
Where two headings read alike, the source gives them in different places.

Assays:
Format in all cases: biochemical
Caspase-6 = target: T1, Caspase-6 (Homo sapiens, UniProt P55212); test: Assay of selective inhibitory activity, caspase-6; settings: read-out: IC50 against caspase-6
T1 construct: purchased BIOMOL Research Laboratories Inc; host or cells: E. coli
T1 sequence (P55212 24-179 limits assumed): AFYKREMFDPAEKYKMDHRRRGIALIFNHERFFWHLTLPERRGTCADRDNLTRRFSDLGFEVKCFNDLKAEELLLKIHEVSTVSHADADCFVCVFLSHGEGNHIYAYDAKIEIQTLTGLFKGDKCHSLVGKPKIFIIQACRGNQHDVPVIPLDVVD
T1 sequence (P55212 194-293 limits assumed): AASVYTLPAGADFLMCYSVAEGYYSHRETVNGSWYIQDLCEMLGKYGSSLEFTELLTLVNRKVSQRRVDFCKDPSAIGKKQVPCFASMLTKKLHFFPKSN
Protocol: (§1) To investigate the selectivity on caspase enzyme subtypes, the inhibitory effects of the compounds of this invention on several other members of the caspase family, caspase-1, 6, 7 and 8 were evaluated.
(§2) After 1 hr incubation at 37° C., the release of AFC (7-amino-4-trifluoromethyl-coumarin) was monitored in a fluorometric plate reader (Victor 1420). The excitation and emission wavelengths were 400 nm and 510 nm, respectively. Isotherms from three assays were calculated by computerized nonlinear regression analysis (GraphPad Prism Program, San Diego, Calif.) to yield IC50 values. Caspase-1, 6, 7 and 8 were purchased from BIOMOL Research Laboratories Inc. (Plymouth Meeting, Pa., USA).
(§3) Coumarin-based fluorogenic substrates for each enzyme were obtained from Sigma/RBI (St. Louis, Mo., USA). The compound used in the assay was 8-amino-4-(3-morpholine-4-yl-propylamino)-quinoline-3-carboxylic acid ethyl ester. The enzymatic activity of caspase-1, 6, 7 or 8 was determined by the same procedures as for the caspase-3 assay, except for enzyme or substrate (Table 2).

[1] = target: T2, human recombinant caspase-3 enzyme (Homo sapiens, UniProt P42574); test: Enzyme assay of caspase-3 inhibition (fluorogenic Ac-DEVD-AFC substrate)
T2 construct: each cDNA encoding p12 and p17 subunits of caspase-3 was PCR-amplified respectively and subcloned into a pET3-a expression vector; made in house; host or cells: E. coli BL21 (DE3), pET3-a vector
T2 sequence (P42574 29-175 limits assumed): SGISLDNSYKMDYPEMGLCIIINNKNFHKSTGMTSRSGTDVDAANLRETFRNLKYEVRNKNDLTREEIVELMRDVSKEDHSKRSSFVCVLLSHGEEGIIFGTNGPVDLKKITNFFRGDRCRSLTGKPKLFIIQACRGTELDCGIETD
T2 sequence (P42574 176-277 limits assumed): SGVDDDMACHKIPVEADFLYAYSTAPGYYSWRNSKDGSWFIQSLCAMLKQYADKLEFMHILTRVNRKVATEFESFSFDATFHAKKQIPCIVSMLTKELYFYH
Protocol: The active form of human recombinant caspase-3 enzyme was prepared from Escherichia coli (E.coli) heterologous expression system as described previously (Rotonda J. et al., Nat Struct Biol 3(7): 617–25, 1996). Briefly, each cDNA encoding p12 and p17 subunits of caspase-3 was PCR-amplified respectively and subcloned into a pET3-a expression vector (Novagen), which was followed by transfection into E. coli strain BL21 (DE3). The bacterial cultures (0.5 liters for each transfectant) were grown at 37° C. until logarithmic phase of cell growth and isopropyl-1-thio-β-D-galactopyranoside (IPTC) (Pharmacia) was then added to a final concentration of 0.5 mM. After 3 hr of incubation, the bacteria were pelleted and lysed in a lysis buffer (20 mM Tris hydrochloride pH 8.0, 1 mM EDTA, 2 mM dithiothreitol (DTT), 100 mM NaCl, 200 ug/ml of lysozyme) through sonication. After centrifugation, the pellets from each transfectants were dissolved in 6 M urea and were mixed and rapidly diluted 50 fold in 100 mM HEPES/KOH (pH 7.5), 10% sucrose, 0.1% CHAPS, 0.5 M NaCl, 10 mM DTT. The concentration of protein was determined with the Bradford method (Bio-Rad), with bovine serum albumin as the standard. To verify whether expected size of proteins were obtained, the cell lysates from each cDNA transfectants were analyzed on 14% SDS PAGE and visualized with Coomassie blue staining.
200 ul of the following assay solution was contained in each well of 96-well plate: 20 mM HEPES/KOH (pH 7.5), 10% sucrose, 10 mM DTT, 0.2 mM EDTA, 0.1% CHAPS, 200 ng of enzymes, and 2.5 uM of the substrate. The fluorogenic substrate […]-Asp-Glu-Val-Asp-7-amino-4-trifluoromethylcoumarin (Ac-DEVD-AFC) was purchased from Sigma (St Louis, Mo.) and dissolved in DMSO as a 2.5 mM stock solution and kept at −20° C. before use.
After 1 hr incubation at 37° C., the release of AFC (7-amino-4-trifluoromethyl-coumarin) was monitored in a fluorometric plate reader (Victor 1420). The excitation and emission wavelengths were 400 nm and 510 nm, respectively. The inhibitory effects of compounds on enzyme activities were determined with 2, 20 or 200 uM concentrations of the test compound run in triplicate tubes, and isotherms from three assays were calculated by computerized nonlinear regression analysis (GraphPad Prism Program, San Diego, Calif.) to yield IC50 values.

Caspase-1 = target: T3, Caspase-1 (Homo sapiens, UniProt P29466); test: Assay of selective inhibitory activity, caspase-1; settings: read-out: IC50 against caspase-1
T3 construct: purchased BIOMOL Research Laboratories Inc; host or cells: E. coli
T3 sequence (P29466 120-297 limits assumed): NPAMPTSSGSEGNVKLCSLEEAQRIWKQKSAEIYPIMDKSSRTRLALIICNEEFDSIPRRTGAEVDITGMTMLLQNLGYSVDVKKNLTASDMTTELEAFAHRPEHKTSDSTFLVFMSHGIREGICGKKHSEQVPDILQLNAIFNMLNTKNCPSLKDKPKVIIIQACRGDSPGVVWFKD
T3 sequence (P29466 317-404 limits assumed): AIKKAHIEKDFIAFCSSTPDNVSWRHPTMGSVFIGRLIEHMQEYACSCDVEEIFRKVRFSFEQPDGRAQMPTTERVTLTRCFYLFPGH
Protocol: as §1, §2, §3

Caspase-7 = target: T4, Caspase-7 (Homo sapiens, UniProt P55210); test: Assay of selective inhibitory activity, caspase-7; settings: read-out: IC50 against caspase-7
T4 construct: purchased BIOMOL Research Laboratories Inc; host or cells: E. coli
T4 sequence (P55210 24-198 limits assumed): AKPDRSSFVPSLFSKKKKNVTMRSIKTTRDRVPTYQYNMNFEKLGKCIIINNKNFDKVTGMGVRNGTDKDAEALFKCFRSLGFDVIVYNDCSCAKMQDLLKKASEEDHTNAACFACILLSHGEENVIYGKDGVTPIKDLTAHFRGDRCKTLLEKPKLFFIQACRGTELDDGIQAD
T4 sequence (P55210 207-303 limits assumed): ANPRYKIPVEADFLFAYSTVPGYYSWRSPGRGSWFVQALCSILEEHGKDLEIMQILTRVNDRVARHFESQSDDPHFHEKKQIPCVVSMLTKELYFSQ
Protocol: as §1, §2, §3

Caspase-8 = target: T5, Caspase-8 (Homo sapiens, UniProt Q14790); test: Assay of selective inhibitory activity, caspase-8; settings: read-out: IC50 against caspase-8
T5 construct: purchased BIOMOL Research Laboratories Inc; host or cells: E. coli
T5 sequence (Q14790 217-374 limits assumed): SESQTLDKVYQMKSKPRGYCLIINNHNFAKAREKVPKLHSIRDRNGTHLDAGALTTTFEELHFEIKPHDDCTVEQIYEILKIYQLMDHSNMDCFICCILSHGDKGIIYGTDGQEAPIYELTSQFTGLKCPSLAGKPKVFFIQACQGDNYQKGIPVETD
T5 sequence (Q14790 385-479 limits assumed): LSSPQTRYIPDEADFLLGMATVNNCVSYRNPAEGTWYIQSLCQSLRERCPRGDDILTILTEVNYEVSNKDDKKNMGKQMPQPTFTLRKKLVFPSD
Protocol: as §1, §2, §3

IC50 (Caspase-6): ≥ 200 µM
IC50 ([1]; caspase-3, Table 1, tested at 2, 20 or 200 uM, read-out: IC50): 13.8 µM
inhibition at 20 µM ([1]; caspase-3 activity, at 20 uM): 92.3%
inhibitory activity against caspase-3 (in words) ([1]; compared to the reference compound): superior activity
IC50 ([1]; selectivity study, text b424, read-out: IC50 against caspase-3): 5.6 µM
IC50 (Caspase-1): ≥ 200 µM
IC50 (Caspase-7): 14.7 µM
IC50 (Caspase-8): ≥ 200 µM
Compound: CCOC(=O)c1cnc2c(N)cccc2c1NCCCN1CCOCC1 [Example 22, 8-Amino-4-(3-morpholin-4-yl-propylamino)-quinoline-3-carboxylic acid ethyl ester]
